The values below come from patent US10308639B2, “Phosphatidylinositol 3-kinase inhibitors” (Gilead Sciences, Inc., priority 2014, dated 2019).

Where two headings read alike, the source gives them in different places.

What all share (assay type): biochemical
In one test the target is T1, PI3Kβ (Homo sapiens, UniProt P42338).
T1 construct: made in house
Briefly: TR-FRET enzymatic activity assay, PI3Kβ. As to conditions: Table 2; TR-FRET, 2x Km ATP, 30 minutes at 25° C. In general terms: Time-resolved FRET reads energy transfer from a long-lived donor to a nearby acceptor.

For another test, the target named is T2, PI3Kδ (Homo sapiens, UniProt O00329).
T2 construct: made in house
T2 sequence (O00329 whole entry): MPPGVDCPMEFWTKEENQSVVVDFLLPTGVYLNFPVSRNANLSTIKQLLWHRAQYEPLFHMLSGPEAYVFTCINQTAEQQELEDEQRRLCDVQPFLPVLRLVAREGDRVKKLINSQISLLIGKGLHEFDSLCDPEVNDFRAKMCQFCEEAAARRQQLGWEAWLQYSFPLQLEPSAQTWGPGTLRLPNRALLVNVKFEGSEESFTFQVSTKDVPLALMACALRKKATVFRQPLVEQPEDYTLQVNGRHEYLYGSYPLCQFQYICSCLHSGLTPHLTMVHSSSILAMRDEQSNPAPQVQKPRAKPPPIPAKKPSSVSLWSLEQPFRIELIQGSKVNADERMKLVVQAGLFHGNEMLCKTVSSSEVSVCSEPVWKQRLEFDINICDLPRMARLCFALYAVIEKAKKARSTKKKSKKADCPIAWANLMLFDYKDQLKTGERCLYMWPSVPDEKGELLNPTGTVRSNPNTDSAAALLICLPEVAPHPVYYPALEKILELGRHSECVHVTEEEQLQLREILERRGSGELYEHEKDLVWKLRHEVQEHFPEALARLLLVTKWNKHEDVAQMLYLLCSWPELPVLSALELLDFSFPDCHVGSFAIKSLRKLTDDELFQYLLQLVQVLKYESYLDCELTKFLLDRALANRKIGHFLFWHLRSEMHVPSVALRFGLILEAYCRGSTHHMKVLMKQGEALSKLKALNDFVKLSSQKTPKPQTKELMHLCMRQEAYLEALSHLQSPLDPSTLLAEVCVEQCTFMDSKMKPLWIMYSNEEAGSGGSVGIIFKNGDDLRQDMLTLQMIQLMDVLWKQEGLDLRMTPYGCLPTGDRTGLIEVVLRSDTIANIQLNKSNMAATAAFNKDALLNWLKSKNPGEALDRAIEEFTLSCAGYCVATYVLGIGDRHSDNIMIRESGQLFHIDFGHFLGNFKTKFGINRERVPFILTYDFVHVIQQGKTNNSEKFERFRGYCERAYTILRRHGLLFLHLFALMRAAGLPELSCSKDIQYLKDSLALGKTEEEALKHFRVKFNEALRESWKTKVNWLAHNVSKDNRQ
T2 sequence (P27986 whole entry partner): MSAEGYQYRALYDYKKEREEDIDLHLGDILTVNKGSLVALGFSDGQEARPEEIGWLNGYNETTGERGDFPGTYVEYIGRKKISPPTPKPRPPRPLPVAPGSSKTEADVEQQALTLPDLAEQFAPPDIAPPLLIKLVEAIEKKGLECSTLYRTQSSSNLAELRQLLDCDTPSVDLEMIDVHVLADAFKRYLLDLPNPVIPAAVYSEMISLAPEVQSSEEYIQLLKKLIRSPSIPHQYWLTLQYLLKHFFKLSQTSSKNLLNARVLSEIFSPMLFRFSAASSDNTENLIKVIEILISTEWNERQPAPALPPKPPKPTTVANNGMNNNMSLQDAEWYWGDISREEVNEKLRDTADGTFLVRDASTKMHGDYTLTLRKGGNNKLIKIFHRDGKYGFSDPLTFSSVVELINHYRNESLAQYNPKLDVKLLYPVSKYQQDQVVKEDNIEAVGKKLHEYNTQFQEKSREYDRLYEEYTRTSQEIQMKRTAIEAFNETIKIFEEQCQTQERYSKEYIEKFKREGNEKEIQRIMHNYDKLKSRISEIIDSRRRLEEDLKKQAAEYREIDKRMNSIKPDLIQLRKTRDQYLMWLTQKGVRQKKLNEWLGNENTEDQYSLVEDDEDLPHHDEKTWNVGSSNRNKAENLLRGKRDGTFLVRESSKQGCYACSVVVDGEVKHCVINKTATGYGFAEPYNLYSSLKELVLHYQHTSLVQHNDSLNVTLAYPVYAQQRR
Briefly: TR-FRET enzymatic activity assay, PI3Kδ.

The next test deals with T3, PI3Kγ (Homo sapiens, UniProt P48736).
T3 construct: made in house
T3 sequence (P48736 whole entry): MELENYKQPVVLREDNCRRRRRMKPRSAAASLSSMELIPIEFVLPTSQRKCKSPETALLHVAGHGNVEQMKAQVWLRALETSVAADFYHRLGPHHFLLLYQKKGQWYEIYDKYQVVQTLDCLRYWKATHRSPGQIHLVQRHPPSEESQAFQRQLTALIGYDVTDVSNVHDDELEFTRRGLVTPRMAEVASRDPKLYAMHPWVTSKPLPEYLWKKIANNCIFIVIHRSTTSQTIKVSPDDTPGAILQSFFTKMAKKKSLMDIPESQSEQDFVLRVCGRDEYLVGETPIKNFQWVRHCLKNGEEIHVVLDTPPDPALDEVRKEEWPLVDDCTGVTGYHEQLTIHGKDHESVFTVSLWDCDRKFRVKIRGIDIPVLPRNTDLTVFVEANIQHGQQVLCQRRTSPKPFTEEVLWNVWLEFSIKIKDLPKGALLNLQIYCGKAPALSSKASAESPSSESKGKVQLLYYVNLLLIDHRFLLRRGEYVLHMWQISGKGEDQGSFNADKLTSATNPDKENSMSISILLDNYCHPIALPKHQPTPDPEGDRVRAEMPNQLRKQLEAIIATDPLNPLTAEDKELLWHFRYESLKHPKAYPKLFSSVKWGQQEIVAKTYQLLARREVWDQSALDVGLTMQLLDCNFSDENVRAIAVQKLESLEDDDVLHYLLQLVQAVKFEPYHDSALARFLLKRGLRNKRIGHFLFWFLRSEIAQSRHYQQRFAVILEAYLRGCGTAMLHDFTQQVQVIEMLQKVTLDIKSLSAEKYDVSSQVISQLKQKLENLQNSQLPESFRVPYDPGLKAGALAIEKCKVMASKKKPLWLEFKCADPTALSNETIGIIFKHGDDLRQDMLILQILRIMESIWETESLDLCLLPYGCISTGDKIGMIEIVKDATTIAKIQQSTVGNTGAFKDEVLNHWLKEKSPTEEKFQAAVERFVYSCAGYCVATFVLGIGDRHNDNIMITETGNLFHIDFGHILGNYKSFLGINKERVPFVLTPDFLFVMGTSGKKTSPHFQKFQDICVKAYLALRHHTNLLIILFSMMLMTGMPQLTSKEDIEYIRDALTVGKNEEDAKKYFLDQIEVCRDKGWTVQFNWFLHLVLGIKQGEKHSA
Briefly: TR-FRET enzymatic activity assay, PI3Kγ. The settings on record: read-out: PI3Kγ IC50. The method, boiled down: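 Activity measured by time-resolved FRET; each isoform tested in its own enzymatic reaction.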

[1] abbreviates: Table 2, TR-FRET, 2x Km ATP, 30 minutes at 25° C.

A word on the IC50: it is the midpoint of a concentration-inhibition curve.

T1 sequence (P42338 whole entry): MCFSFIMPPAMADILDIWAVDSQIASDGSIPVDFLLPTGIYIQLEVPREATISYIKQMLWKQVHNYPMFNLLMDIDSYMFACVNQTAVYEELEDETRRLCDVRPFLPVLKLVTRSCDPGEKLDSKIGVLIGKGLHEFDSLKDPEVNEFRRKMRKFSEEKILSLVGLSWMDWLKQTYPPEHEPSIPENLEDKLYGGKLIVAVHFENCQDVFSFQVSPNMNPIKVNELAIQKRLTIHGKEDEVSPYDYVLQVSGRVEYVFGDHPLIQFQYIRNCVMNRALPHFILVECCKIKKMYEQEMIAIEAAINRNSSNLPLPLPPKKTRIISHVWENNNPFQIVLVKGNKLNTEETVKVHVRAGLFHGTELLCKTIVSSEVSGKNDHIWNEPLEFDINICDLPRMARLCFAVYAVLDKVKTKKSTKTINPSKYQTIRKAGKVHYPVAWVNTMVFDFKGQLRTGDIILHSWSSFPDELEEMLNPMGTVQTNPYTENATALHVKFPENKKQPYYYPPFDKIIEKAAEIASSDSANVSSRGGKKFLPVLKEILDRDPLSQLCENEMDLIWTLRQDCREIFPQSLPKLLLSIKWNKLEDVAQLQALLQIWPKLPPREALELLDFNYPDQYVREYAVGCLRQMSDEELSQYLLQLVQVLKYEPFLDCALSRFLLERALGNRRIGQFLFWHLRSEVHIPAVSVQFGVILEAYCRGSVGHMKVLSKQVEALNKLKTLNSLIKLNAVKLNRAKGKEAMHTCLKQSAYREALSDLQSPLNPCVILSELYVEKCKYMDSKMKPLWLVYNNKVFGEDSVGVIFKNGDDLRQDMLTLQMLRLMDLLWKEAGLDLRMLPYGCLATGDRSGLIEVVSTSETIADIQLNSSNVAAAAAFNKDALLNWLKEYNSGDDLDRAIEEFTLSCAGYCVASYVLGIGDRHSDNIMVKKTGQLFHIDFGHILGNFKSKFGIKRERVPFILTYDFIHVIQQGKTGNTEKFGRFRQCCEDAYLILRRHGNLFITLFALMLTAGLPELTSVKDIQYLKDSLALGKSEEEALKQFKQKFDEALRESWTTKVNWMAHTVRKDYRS
T1 sequence (P27986 whole entry partner): as the sequence (P27986 whole entry partner) above

Turning to `CC[C@H](Nc1ncnc2ccc(Cl)nc12)c1nc2c(Cl)ccc(Cl)c2c(=O)n1-c1cn[nH]c1` [Compound 42, (S)-5,8-dichloro-2-(1-((6-chloropyrido[3,2-d]pyrimidin-4-yl)amino)propyl)-3-(1H-pyrazol-4-yl)quinazolin-4(3H)-one], the half-maximal inhibitory concentration (IC50) against PI3Kβ stood at 77 nM; against PI3Kδ (setting [1]) it was 10 nM; on PI3Kγ (setting [1]), 460 nM.

`CC[C@H](Nc1ncnn2ccnc12)c1nc2c(Cl)ccc(Cl)c2c(=O)n1-c1cc[nH]n1` [Compound 43, (S)-5,8-dichloro-2-(1-(imidazo[2,1-f][1,2,4]triazin-4-ylamino)propyl)-3-(1H-pyrazol-3-yl)quinazolin-4(3H)-one]: the results for the IC50 at PI3Kβ, at PI3Kδ (setting [1]) and on PI3Kγ were 39 nM, 9 nM and over 10000 nM, respectively.

Turning to `CC[C@H](Nc1ncnc2cccnc12)c1nc2c(Cl)ccc(Cl)c2c(=O)n1-c1cc[nH]n1` [Compound 44, (S)-5,8-dichloro-3-(1H-pyrazol-3-yl)-2-(1-(pyrido[3,2-d]pyrimidin-4-ylamino)propyl)quinazolin-4(3H)-one], the IC50 against PI3Kβ was 84 nM; on PI3Kδ (setting [1]) it was 10 nM; on PI3Kγ, over 10000 nM.

With `CC[C@H](Nc1ncnc2ccc(Cl)nc12)c1nc2c(Cl)ccc(Cl)c2c(=O)n1-c1cc[nH]n1` [Compound 45, (S)-5,8-dichloro-2-(1-((6-chloropyrido[3,2-d]pyrimidin-4-yl)amino)propyl)-3-(1H-pyrazol-3-yl)quinazolin-4(3H)-one], the 50% inhibitory concentration (IC50) at PI3Kβ is 15 nM; against PI3Kδ (setting [1]) it was 4 nM; on PI3Kγ it was over 10000 nM.

`CC[C@H](Nc1ncnc2scnc12)c1nc2c(Cl)ccc(Cl)c2c(=O)n1-c1cc[nH]n1` [Compound 46, (S)-5,8-dichloro-3-(1H-pyrazol-3-yl)-2-(1-(thiazolo[5,4-d]pyrimidin-7-ylamino)propyl)quinazolin-4(3H)-one]: the results for the IC50 on PI3Kβ, on PI3Kδ (setting [1]) and at PI3Kγ were 18 nM, 4 nM and over 10000 nM, respectively.

Take `O=c1c2c(Cl)cccc2nc([C@H](COCc2ccccc2)Nc2ncnc3scnc23)n1-c1cn[nH]c1` [Compound 47, (R)-2-(2-(benzyloxy)-1-(thiazolo[5,4-d]pyrimidin-7-ylamino)ethyl)-5-chloro-3-(1H-pyrazol-4-yl)quinazolin-4(3H)-one]: the results for the 50% inhibitory concentration (IC50) against PI3Kβ, against PI3Kδ (setting [1]) and on PI3Kγ (setting [1]) were 11 nM, 11 nM and 2400 nM, respectively.

Consider `O=c1c2c(Cl)cccc2nc([C@H](COCc2ccccc2)Nc2ncnc3scnc23)n1-c1cc[nH]n1` [Compound 48, (R)-2-(2-(benzyloxy)-1-(thiazolo[5,4-d]pyrimidin-7-ylamino)ethyl)-5-chloro-3-(1H-pyrazol-3-yl)quinazolin-4(3H)-one], for which the results for the IC50 against PI3Kβ, at PI3Kδ (setting [1]) and at PI3Kγ were 9 nM, 8 nM and over 10000 nM, respectively.

Regarding `CC[C@H](Nc1nc(N)nc(N)c1C#N)c1nc2cccc(Cl)c2c(=O)n1-c1cc(CCCOC)[nH]n1` [Compound 49, (S)-2,4-diamino-6-((1-(5-chloro-3-(5-(3-methoxypropyl)-1H-pyrazol-3-yl)-4-oxo-3,4-dihydroquinazolin-2-yl)propyl)amino)pyrimidine-5-carbonitrile], the IC50 came to 150 nM at PI3Kβ, 9 nM on PI3Kδ (setting [1]) and 3500 nM on PI3Kγ (setting [1]).

With `O=c1c2c(Cl)cccc2nc([C@H](CO)Nc2ncnc3scnc23)n1-c1cn[nH]c1` [Compound 50, (R)-5-chloro-2-(2-hydroxy-1-(thiazolo[5,4-d]pyrimidin-7-ylamino)ethyl)-3-(1H-pyrazol-4-yl)quinazolin-4(3H)-one], the IC50 worked out at 47 nM at PI3Kβ, 7 nM against PI3Kδ (setting [1]) and 1800 nM at PI3Kγ (setting [1]).

In the case of `O=c1c2c(Cl)cccc2nc([C@H](CO)Nc2ncnc3scnc23)n1-c1cc[nH]n1` [Compound 51, (R)-5-chloro-2-(2-hydroxy-1-(thiazolo[5,4-d]pyrimidin-7-ylamino)ethyl)-3-(1H-pyrazol-3-yl)quinazolin-4(3H)-one], the half-inhibitory concentration (IC50) at PI3Kβ was 9 nM; against PI3Kδ (setting [1]), 2 nM; on PI3Kγ, over 10000 nM.

As to `CC[C@H](Nc1ncnc2[nH]cnc12)c1nc2c(Cl)ccc(Cl)c2c(=O)n1-c1cc[nH]n1` [Compound 52, (S)-2-(1-((9H-purin-6-yl)amino)propyl)-5,8-dichloro-3-(1H-pyrazol-3-yl)quinazolin-4(3H)-one], the IC50 on PI3Kβ was 70 nM; against PI3Kδ (setting [1]), 6 nM; at PI3Kγ it was over 10000 nM.

On to `CC[C@H](Nc1nc(F)nc2[nH]cnc12)c1nc2c(Cl)ccc(Cl)c2c(=O)n1-c1cc[nH]n1` [Compound 53, (S)-5,8-dichloro-2-(1-((2-fluoro-9H-purin-6-yl)amino)propyl)-3-(1H-pyrazol-3-yl)quinazolin-4(3H)-one], for which the IC50 against PI3Kβ was 76 nM; on PI3Kδ (setting [1]), 13 nM; on PI3Kγ it was over 10000 nM.

Regarding `CC[C@H](Nc1ncnc2sccc12)c1nc2c(Cl)ccc(Cl)c2c(=O)n1-c1cc[nH]n1` [Compound 54, (S)-5,8-dichloro-3-(1H-pyrazol-3-yl)-2-(1-(thieno[2,3-d]pyrimidin-4-ylamino)propyl)quinazolin-4(3H)-one], the values for the half-maximal inhibitory concentration (IC50) against PI3Kβ, on PI3Kδ (setting [1]) and on PI3Kγ were 240 nM, 18 nM and over 10000 nM, respectively.

In the case of `CC[C@H](Nc1nc(F)nc2[nH]cnc12)c1nc2c(Cl)ccc(Cl)c2c(=O)n1-c1cn[nH]c1` [Compound 55, (S)-5,8-dichloro-2-(1-((2-fluoro-9H-purin-6-yl)amino)propyl)-3-(1H-pyrazol-4-yl)quinazolin-4(3H)-one], the figures for the IC50 against PI3Kβ, against PI3Kδ (setting [1]) and at PI3Kγ were 570 nM, 65 nM and over 10000 nM, respectively.

Take `CC[C@H](Nc1ncnc2sccc12)c1nc2c(Cl)ccc(Cl)c2c(=O)n1-c1cn[nH]c1` [Compound 56, (S)-5,8-dichloro-3-(1H-pyrazol-4-yl)-2-(1-(thieno[2,3-d]pyrimidin-4-ylamino)propyl)quinazolin-4(3H)-one]: the concentration for half-maximal inhibition (IC50) is 1300 nM against PI3Kβ, 88 nM against PI3Kδ (setting [1]) and over 10000 nM on PI3Kγ.

Consider `CC[C@H](Nc1ncnc2[nH]cnc12)c1nc2c(Cl)ccc(Cl)c2c(=O)n1-c1cn[nH]c1` [Compound 57, (S)-2-(1-((9H-purin-6-yl)amino)propyl)-5,8-dichloro-3-(1H-pyrazol-4-yl)quinazolin-4(3H)-one], for which the IC50 was 380 nM at PI3Kβ, 29 nM on PI3Kδ (setting [1]) and over 10000 nM on PI3Kγ.

Consider `CC[C@H](Nc1ncnc2[nH]cc(F)c12)c1nc2c(Cl)ccc(Cl)c2c(=O)n1-c1cn[nH]c1` [Compound 58, (S)-5,8-dichloro-2-(1-((5-fluoro-7H-pyrrolo[2,3-d]pyrimidin-4-yl)amino)propyl)-3-(1H-pyrazol-4-yl)quinazolin-4(3H)-one], for which the figures for the IC50 against PI3Kβ, at PI3Kδ (setting [1]) and at PI3Kγ (setting [1]) were 320 nM, 14 nM and 5900 nM, respectively.

On to `CC[C@H](Nc1ncnc2[nH]cc(F)c12)c1nc2c(Cl)ccc(Cl)c2c(=O)n1-c1cc[nH]n1` [Compound 59, (S)-5,8-dichloro-2-(1-((5-fluoro-7H-pyrrolo[2,3-d]pyrimidin-4-yl)amino)propyl)-3-(1H-pyrazol-3-yl)quinazolin-4(3H)-one], for which the IC50 was 97 nM on PI3Kβ, 2 nM against PI3Kδ and over 10000 nM on PI3Kγ.

With `C[C@H](Nc1ncnc2sccc12)c1nc2cccc(Cl)c2c(=O)n1-c1cc[nH]n1` [Compound 60, (S)-5-chloro-3-(1H-pyrazol-3-yl)-2-(1-(thieno[2,3-d]pyrimidin-4-ylamino)ethyl)quinazolin-4(3H)-one], the IC50 against PI3Kβ is 43 nM; against PI3Kδ (setting [1]), 2 nM; on PI3Kγ it was over 10000 nM.

Regarding `C[C@H](Nc1ncnc2ccoc12)c1nc2cccc(Cl)c2c(=O)n1-c1cc[nH]n1` [Compound 61, (S)-5-chloro-2-(1-(furo[3,2-d]pyrimidin-4-ylamino)ethyl)-3-(1H-pyrazol-3-yl)quinazolin-4(3H)-one], the 50% inhibitory concentration (IC50) against PI3Kβ was 20 nM; on PI3Kδ (setting [1]) it was 3 nM; on PI3Kγ (setting [1]), 8100 nM.

For `CC[C@H](Nc1ncnc2ccoc12)c1nc2c(Cl)ccc(Cl)c2c(=O)n1-c1cc[nH]n1` [Compound 62, (S)-5,8-dichloro-2-(1-(furo[3,2-d]pyrimidin-4-ylamino)propyl)-3-(1H-pyrazol-3-yl)quinazolin-4(3H)-one], the IC50 on PI3Kβ was 120 nM; at PI3Kδ (setting [1]) it was 9 nM; on PI3Kγ, over 10000 nM.

In the case of `CC[C@H](Nc1nc(N)nc(N)c1Cl)c1nc2cccc(Cl)c2c(=O)n1-c1cc[nH]n1` [Compound 65, (S)-5-chloro-2-(1-((2,6-diamino-5-chloropyrimidin-4-yl)amino)propyl)-3-(1H-pyrazol-3-yl)quinazolin-4(3H)-one], the IC50 on PI3Kβ came out at 18 nM; against PI3Kδ (setting [1]), 9 nM; on PI3Kγ (setting [1]) it was 4200 nM.

As to `CC[C@H](Nc1nc(N)nc(N)c1Cl)c1nc2c(Cl)ccc(Cl)c2c(=O)n1-c1cc[nH]n1` [Compound 66, (S)-5,8-dichloro-2-(1-((2,6-diamino-5-chloropyrimidin-4-yl)amino)propyl)-3-(1H-pyrazol-3-yl)quinazolin-4(3H)-one], the IC50 against PI3Kβ was 150 nM; on PI3Kδ (setting [1]), 36 nM; on PI3Kγ, over 10000 nM.

With `C[C@H](Nc1nc(N)nc(N)c1Cl)c1nc2c(F)ccc(Cl)c2c(=O)n1-c1cc[nH]n1` [Compound 67, (S)-5-chloro-2-(1-((2,6-diamino-5-chloropyrimidin-4-yl)amino)ethyl)-8-fluoro-3-(1H-pyrazol-3-yl)quinazolin-4(3H)-one], the IC50 against PI3Kβ is 3 nM; against PI3Kδ (setting [1]), 3 nM; at PI3Kγ (setting [1]) it was 2800 nM.

Consider `CC[C@H](Nc1nc(N)nc(N)c1Cl)c1nc2c(F)ccc(Cl)c2c(=O)n1-c1cc[nH]n1` [Compound 68, (S)-5-chloro-2-(1-((2,6-diamino-5-chloropyrimidin-4-yl)amino)propyl)-8-fluoro-3-(1H-pyrazol-3-yl)quinazolin-4(3H)-one], for which the half-maximal inhibitory concentration (IC50) was 44 nM against PI3Kβ, 20 nM on PI3Kδ (setting [1]) and over 10000 nM on PI3Kγ.
